Reference: patent US20130303509A1, “NAMPT INHIBITORS” (AbbVie Inc., priority 2012, published 2013)

Tested on: PC3 cells
Assay: NAMPT Cell Proliferation Assay
Type: cell-based
Conditions: Homo sapiens, PC-3, 120 h, 5 days incubation, cell viability by Cell Titer Glo
Method in brief: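 Five-day CellTiter-Glo viability readout in PC3 cells grown in RPMI/10% heat-inactivated FBS. Compounds added after overnight attachment as a 10-fold dilution series, […]. Percent inhibition fitted to sigmoidal dose-response to derive IC50.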

Q: With `CC(C)CC(=O)N1CCC(S(=O)(=O)c2ccc(NC(=O)C3CN(c4cccnn4)C3)cc2)CC1` [Example 597, N-(4-{[1-(3-methylbutanoyl)piperidin-4-yl]sulfonyl}phenyl)-1-(pyridazin-3-yl)azetidine-3-carboxamide] as the molecule, how does the IC50 read?
A: 117 nM

Q: How did the IC50 turn out when `CC(C)C(=O)N1CCC(S(=O)(=O)c2ccc(NC(=O)C3CN(c4cccnn4)C3)cc2)CC1` [Example 598, N-(4-{[1-(2-methylpropanoyl)piperidin-4-yl]sulfonyl}phenyl)-1-(pyridazin-3-yl)azetidine-3-carboxamide] was run?
A: 208 nM

Q: With `O=C(Nc1ccc(S(=O)(=O)C2CCN(C(=O)C3CCCC3)CC2)cc1)C1CN(c2cccnn2)C1` [Example 599, N-(4-{[1-(cyclopentylcarbonyl)piperidin-4-yl]sulfonyl}phenyl)-1-(pyridazin-3-yl)azetidine-3-carboxamide] as the molecule, how does the IC50 read?
A: 79.7 nM

Q: `O=C(Nc1ccc(S(=O)(=O)C2CCN(C(=O)Cc3ccccc3)CC2)cc1)C1CN(c2cccnn2)C1` [Example 600, N-(4-{[1-(phenylacetyl)piperidin-4-yl]sulfonyl}phenyl)-1-(pyridazin-3-yl)azetidine-3-carboxamide] was tested. Which IC50 did it give?
A: 219 nM

Q: `O=C(Nc1ccc(S(=O)(=O)C2CCN(C(=O)C3(c4ccccc4)CC3)CC2)cc1)C1CN(c2cccnn2)C1` [Example 601, N-[4-({1-[(1-phenylcyclopropyl)carbonyl]piperidin-4-yl}sulfonyl)phenyl]-1-(pyridazin-3-yl)azetidine-3-carboxamide] was tested. Which IC50 did it give?
A: 96.8 nM

Q: With `CC(C)(N)C(=O)N1CCC(c2ccc(NC(=O)C3CN(c4cccnc4)C3)cc2)CC1` [Example 602, N-{4-[1-(2-methylalanyl)piperidin-4-yl]phenyl}-1-(pyridin-3-yl)azetidine-3-carboxamide] as the molecule, how does the IC50 read?
A: 2 nM

Q: For `CC(C)Cn1cc(-c2ccc(C(=O)N[C@@H]3CCN(c4cccnc4)C3)s2)cn1` [Example 603, 5-[1-(2-methylpropyl)-1H-pyrazol-4-yl]-N-[(3R)-1-(pyridin-3-yl)pyrrolidin-3-yl]thiophene-2-carboxamide], which IC50 is on record?
A: 576 nM

Q: For `CC(C)Cn1cc(-c2ccc(C(=O)N[C@@H]3CCN(c4ccnnc4)C3)s2)cn1` [Example 604, 5-[1-(2-methylpropyl)-1H-pyrazol-4-yl]-N-[(3R)-1-(pyridazin-4-yl)pyrrolidin-3-yl]thiophene-2-carboxamide], which IC50 is on record?
A: 8260 nM

Q: Which IC50 does the source give for `CC(C)Cn1cc(-c2ccc(C(=O)N[C@@H]3CCN(c4cccnn4)C3)s2)cn1` [Example 605, 5-[1-(2-methylpropyl)-1H-pyrazol-4-yl]N-[(3R)-1-(pyridazin-3-yl)pyrrolidin-3-yl]thiophene-2-carboxamide] here?
A: 1400 nM

Q: Which IC50 does the source give for `CC(C)Cn1cc(-c2ccc(C(=O)N[C@H]3CCN(c4cccnn4)C3)s2)cn1` [Example 606, 5-[1-(2-methylpropyl)-1H-pyrazol-4-yl]-N-[(3S)-1-(pyridazin-3-yl)pyrrolidin-3-yl]thiophene-2-carboxamide] here?
A: 86.7 nM

Q: With `CC(C)Cn1cc(-c2ccc(C(=O)N[C@H]3CCN(c4ccnnc4)C3)s2)cn1` [Example 607, 5-[1-(2-methylpropyl)-1H-pyrazol-4-yl]-N-[(3S)-1-(pyridazin-4-yl)pyrrolidin-3-yl]thiophene-2-carboxamide] as the molecule, how does the IC50 read?
A: 7650 nM

Q: With `CC(C)Cn1cc(-c2ccc(C(=O)N[C@H]3CCN(c4cccnc4)C3)s2)cn1` [Example 608, 5-[1-(2-methylpropyl)-1H-pyrazol-4-yl]-N-[(3S)-1-(pyridin-3-yl)pyrrolidin-3-yl]thiophene-2-carboxamide] as the molecule, how does the IC50 read?
A: 712 nM

Q: `CC(C)(C)OC(=O)N1CCN(C(C)(C)C(=O)N2CCC(c3ccc(NC(=O)C4CN(c5cccnc5)C4)cc3)CC2)CC1` [Example 609, tert-butyl 4-(2-methyl-1-oxo-1-{4-[4-({[1-(pyridin-3-yl)azetidin-3-yl]carbonyl}amino)phenyl]piperidin-1-yl}propan-2-yl)piperazine-1-carboxylate] was tested. Which IC50 did it give?
A: 2.05 nM

Q: With `CC(C)(C(=O)N1CCC(c2ccc(NC(=O)C3CN(c4cccnc4)C3)cc2)CC1)N1CCNCC1` [Example 610, N-(4-{1-[2-methyl-2-(piperazin-1-yl)propanoyl]piperidin-4-yl}phenyl)-1-(pyridin-3-yl)azetidine-3-carboxamide] as the molecule, how does the IC50 read?
A: 7.9 nM

Q: For `O=C(Nc1ccc(S(=O)(=O)C2CCN(C(=O)c3ccccc3Cl)CC2)cc1)C1CN(c2cccnn2)C1` [Example 611, N-(4-{[1-(2-chlorobenzoyl)piperidin-4-yl]sulfonyl}phenyl)-1-(pyridazin-3-yl)azetidine-3-carboxamide], which IC50 is on record?
A: 90 nM

Q: `CC(C)CCC(=O)N1CCC(S(=O)(=O)c2ccc(NC(=O)C3CN(c4cccnn4)C3)cc2)CC1` [Example 612, N-(4-{[1-(4-methylpentanoyl)piperidin-4-yl]sulfonyl}phenyl)-1-(pyridazin-3-yl)azetidine-3-carboxamide] was tested. Which IC50 did it give?
A: 53.6 nM

Q: `O=C(Nc1ccc(S(=O)(=O)C2CCN(C(=O)Cc3ccccc3F)CC2)cc1)C1CN(c2cccnn2)C1` [Example 613, N-[4-({1-[(2-fluorophenyl)acetyl]piperidin-4-yl}sulfonyl)phenyl]-1-(pyridazin-3-yl)azetidine-3-carboxamide] was tested. Which IC50 did it give?
A: 707 nM

Q: How did the IC50 turn out when `CC(C)C(=O)N1CCC(S(=O)(=O)c2ccc(NC(=O)C3CN(c4ccnnc4)C3)cc2)CC1` [Example 614, N-(4-{[1-(2-methylpropanoyl)piperidin-4-yl]sulfonyl}phenyl)-1-(pyridazin-4-yl)azetidine-3-carboxamide] was run?
A: 7660 nM

Q: `O=C(Nc1ccc(S(=O)(=O)C2CCN(C(=O)c3ccccc3)CC2)cc1)C1CN(c2ccnnc2)C1` [Example 615, N-{4-[(1-benzoylpiperidin-4-yl)sulfonyl]phenyl}-1-(pyridazin-4-yl)azetidine-3-carboxamide] was tested. Which IC50 did it give?
A: 6150 nM

Q: With `O=C(Nc1ccc(S(=O)(=O)C2CCN(C(=O)c3ccc(F)cc3)CC2)cc1)C1CN(c2ccnnc2)C1` [Example 616, N-(4-{[1-(4-fluorobenzoyl)piperidin-4-yl]sulfonyl}phenyl)-1-(pyridazin-4-yl)azetidine-3-carboxamide] as the molecule, how does the IC50 read?
A: 7290 nM

Q: `O=C(Nc1ccc(S(=O)(=O)C2CCN(C(=O)C3CCCC3)CC2)cc1)C1CN(c2ccnnc2)C1` [Example 617, N-(4-{[1-(cyclopentylcarbonyl)piperidin-4-yl]sulfonyl}phenyl)-1-(pyridazin-4-yl)azetidine-3-carboxamide] was tested. Which IC50 did it give?
A: 1870 nM

Q: `CC(C)Cn1cc(-c2ccc(C(=O)N[C@@H]3CCN(c4cnnc(Cl)c4Cl)C3)s2)cn1` [Example 618, N-[(3R)-1-(5,6-dichloropyridazin-4-yl)pyrrolidin-3-yl]-5-[1-(2-methylpropyl)-1H-pyrazol-4-yl]thiophene-2-carboxamide] was tested. Which IC50 did it give?
A: > 10000 nM

Q: For `CC(C)Cn1cc(-c2ccc(C(=O)N[C@@H]3CCN(c4ccc(Cl)nn4)C3)s2)cn1` [Example 619, N-[(3R)-1-(6-chloropyridazin-3-yl)pyrrolidin-3-yl]-5-[1-(2-methylpropyl)-1H-pyrazol-4-yl]thiophene-2-carboxamide], which IC50 is on record?
A: > 10000 nM

Q: `CC(C)Cn1cc(-c2ccc(C(=O)N[C@H]3CCN(c4cnnc(Cl)c4Cl)C3)s2)cn1` [Example 620, N-[(3S)-1-(5,6-dichloropyridazin-4-yl)pyrrolidin-3-yl]-5-[1-(2-methylpropyl)-1H-pyrazol-4-yl]thiophene-2-carboxamide] was tested. Which IC50 did it give?
A: 2830 nM

Q: `CC(C)Cn1cc(-c2ccc(C(=O)N[C@H]3CCN(c4ccc(Cl)nn4)C3)s2)cn1` [Example 621, N-[(3S)-1-(6-chloropyridazin-3-yl)pyrrolidin-3-yl]-5-[1-(2-methylpropyl)-1H-pyrazol-4-yl]thiophene-2-carboxamide] was tested. Which IC50 did it give?
A: > 10000 nM

Q: Which IC50 does the source give for `CC(C)Cn1cc(-c2cc(C(=O)N[C@@H]3CCN(c4cnnc(Cl)c4Cl)C3)cs2)cn1` [Example 622, N-[(3R)-1-(5,6-dichloropyridazin-4-yl)pyrrolidin-3-yl]-5-[1-(2-methylpropyl)-1H-pyrazol-4-yl]thiophene-3-carboxamide] here?
A: > 10000 nM

Q: Which IC50 does the source give for `CC(C)Cn1cc(-c2cc(C(=O)N[C@@H]3CCN(c4cccnn4)C3)cs2)cn1` [Example 623, 5-[1-(2-methylpropyl)-1H-pyrazol-4-yl]-N-[(3R)-1-(pyridazin-3-yl)pyrrolidin-3-yl]thiophene-3-carboxamide] here?
A: 6170 nM

Q: For `CC(C)Cn1cc(-c2cc(C(=O)N[C@@H]3CCN(c4ccnnc4)C3)cs2)cn1` [Example 624, 5-[1-(2-methylpropyl)-1H-pyrazol-4-yl]-N-[(3R)-1-(pyridazin-4-yl)pyrrolidin-3-yl]thiophene-3-carboxamide], which IC50 is on record?
A: > 10000 nM

Q: How did the IC50 turn out when `CC(C)(C)C(=O)N1CCC(c2ccc(NC(=O)C3CCN(c4cccnn4)CC3)cc2)CC1` [Example 625, N-{4-[1-(2,2-dimethylpropanoyl)piperidin-4-yl]phenyl}-1-(pyridazin-3-yl)piperidine-4-carboxamide] was run?
A: 1900 nM

Q: Which IC50 does the source give for `O=C(Nc1ccc(C2CCN(C(=O)c3ccccc3)CC2)cc1)C1CCN(c2cccnn2)CC1` [Example 626, N-[4-(1-benzoylpiperidin-4-yl)phenyl]-1-(pyridazin-3-yl)piperidine-4-carboxamide] here?
A: 5220 nM

Q: Which IC50 does the source give for `O=C(Nc1ccc(C2CCN(C(=O)c3ccccc3F)CC2)cc1)C1CCN(c2cccnn2)CC1` [Example 627, N-{4-[1-(2-fluorobenzoyl)piperidin-4-yl]phenyl}-1-(pyridazin-3-yl)piperidine-4-carboxamide] here?
A: 853 nM

Q: Which IC50 does the source give for `O=C(Nc1ccc(C2CCN(C(=O)CCC(F)(F)F)CC2)cc1)C1CCN(c2cccnn2)CC1` [Example 628, 1-(pyridazin-3-yl)-N-{4-[1-(4,4,4-trifluorobutanoyl)piperidin-4-yl]phenyl}piperidine-4-carboxamide] here?
A: > 10000 nM

Q: With `CC(C)Cn1cc(-c2cc(C(=O)N[C@H]3CCN(c4ccc(Cl)nn4)C3)cs2)cn1` [Example 629, N-[(3S)-1-(6-chloropyridazin-3-yl)pyrrolidin-3-yl]-5-[1-(2-methylpropyl)-1H-pyrazol-4-yl]thiophene-3-carboxamide] as the molecule, how does the IC50 read?
A: 5010 nM

Q: With `O=C(Nc1ccc(C2CCN(C(=O)c3cncs3)CC2)cc1)[C@H]1CCN(c2cccnn2)C1` [Example 630, (3S)-1-(pyridazin-3-yl)-N-{4-[1-(1,3-thiazol-5-ylcarbonyl)piperidin-4-yl]phenyl}pyrrolidine-3-carboxamide] as the molecule, how does the IC50 read?
A: 8.12 nM
